target: T1, recombinant human 11 β-HSD1 (Homo sapiens, UniProt P28845); experiment: 11 β-HSD1 SPA Assay (Scintillation Proximity Assay); format: biochemical
T1 construct: made in house; host or cells: E. coli
Protocol: (§1) Inhibition of 11 βHSD1 by test compounds was assessed in vitro by a Scintillation Proximity Assay (SPA). The assay was carried out in a 384-well assay plate in a total well volume of 26 μl and contained a mixture of tritiated cortisone substrate (40 nM), NADPH cofactor (1 mM), inhibitor in serial dilutions ([…] to 10 μM), and purified E. coli-expressed recombinant human 11 βHSD1 (30-100 nM) in assay buffer (50 mM HEPES, 100 mM KCl, 5 mM NaCl, and 2 mM MgCl2, pH7.4). Following mixing, the plate was incubated for 2 hours at room temperature. Reactions were stopped by addition of 30 μl of protein A YSi SPA beads (10 mg/ml) that had been pre-incubated with glycyrrhetinic acid (1 mM) and a monoclonal cortisol antibody (3 μg/ml). The plate was then incubated overnight at room temperature prior to reading on a Microbeta counter. Percent inhibition of each compound was calculated based on the background and the maximal signals. Wells that contained substrate without compound or enzyme were used as the background signal, while the wells that contained substrate and enzyme without any compound were used as the maximal signal. The calculation of the IC50 values for the inhibitors was performed by Activity Base.
as §1, with “β-HSD1” for “βHSD1”

T1 sequence (P28845 whole entry): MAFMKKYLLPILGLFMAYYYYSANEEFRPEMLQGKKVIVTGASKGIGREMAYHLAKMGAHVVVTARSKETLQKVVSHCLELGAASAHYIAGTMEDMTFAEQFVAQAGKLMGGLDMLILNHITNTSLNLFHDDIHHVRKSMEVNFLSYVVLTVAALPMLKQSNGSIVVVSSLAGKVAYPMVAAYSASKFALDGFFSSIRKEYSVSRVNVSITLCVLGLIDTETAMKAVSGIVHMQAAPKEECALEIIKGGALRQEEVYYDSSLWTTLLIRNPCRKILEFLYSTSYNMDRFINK

SMILES | IC50 [nM]
CC(C)(Oc1ccc(Cl)cc1Cl)C(=O)N1[C@@H]2CC[C@H]1C[C@@H](Nc1ccc(C(N)=O)cn1)C2 [Example 302, 6-[(8-{2-[(2,4-dichlorophenyl)oxy]-2-methylpropanoyl}-8-azabicyclo[3.2.1]oct-3-endo-yl)amino]pyridine-3-carboxamide] | < 200
CC(C)(Oc1ccc(Cl)cc1Cl)C(=O)N[C@H]1C[C@H]2CC[C@@H](C1)N2c1ccc(-c2nnn[nH]2)cn1 [Example 114, 2-[(2,4-dichlorophenyl)oxy]-2-methyl-N-{8-[5-(1H-tetrazol-5-yl)pyridin-2-yl]-8-azabicyclo[3.2.1]oct-3-endo-yl}propanamide] | < 200
CC(C)(Oc1ccc(Cl)cc1)C(=O)N[C@H]1C[C@H]2CC[C@@H](C1)N2c1ccc(C#N)cn1 [Example 32, 2-[(4-chlorophenyl)oxy]-N-[8-(5-cyanopyridin-2-yl)-8-azabicyclo[3.2.1]oct-3-endo-yl]-2-methylpropanamide] | < 200
CC(C)(Oc1ccc(C(F)(F)F)cn1)C(=O)N[C@H]1C[C@H]2CC[C@@H](C1)N2c1ccc(S(C)(=O)=O)cc1 [Example 196, 2-methyl-N-{8-[4-(methylsulfonyl)phenyl]-8-azabicyclo[3.2.1]oct-3-endo-yl}-2-{[5-(trifluoromethyl)pyridin-2-yl]oxy}propanamide] | < 2000
Cc1cc(F)ccc1OC(C)(C)C(=O)N[C@H]1C[C@H]2CC[C@@H](C1)N2c1ccc(S(C)(=O)=O)cn1 [Example 217, 2-[(4-fluoro-2-methylphenyl)oxy]-2-methyl-N-{8-[5-(methylsulfonyl)pyridin-2-yl]-8-azabicyclo[3.2.1]oct-3-endo-yl}propanamide] | < 200
CC(=O)Nc1ccc(N2[C@@H]3CC[C@H]2C[C@@H](NC(=O)C2(c4ccc(Cl)cc4)CC2)C3)nc1 [Example 58, N-{8-[5-(acetylamino)pyridin-2-yl]-8-azabicyclo[3.2.1]oct-3-endo-yl}-1-(4-chlorophenyl)cyclopropanecarboxamide] | < 200
CC(C)(Oc1ccc(Cl)c(Cl)c1)C(=O)N[C@H]1C[C@H]2CC[C@@H](C1)N2c1ccc(C(=O)NC2CC2)cn1 [Example 42, N-cyclopropyl-6-[3-endo-({2-[(3,4-dichlorophenyl)oxy]-2-methylpropanoyl}amino)-8-azabicyclo[3.2.1]oct-8-yl]pyridine-3-carboxamide] | < 200
CC(C)(Oc1ccc(F)cc1)C(=O)N[C@H]1C[C@H]2CC[C@@H](C1)N2c1ccc(S(C)(=O)=O)cc1 [Example 233, 2-[(4-fluorophenyl)oxy]-2-methyl-N-{8-[4-(methylsulfonyl)phenyl]-8-azabicyclo[3.2.1]oct-3-endo-yl}propanamide] | < 2000
CC(C)(Oc1cc(OCCN2CCCC2)c(Cl)cc1Cl)C(=O)N[C@H]1C[C@H]2CC[C@@H](C1)N2c1ccc(C(=O)NCC(F)(F)F)cn1 [Example 405, 6-(3-endo-(2-(2,4-dichloro-5-(2-(pyrrolidin-1-yl)ethoxy)phenoxy)-2-methylpropanamido)-8-azabicyclo[3.2.1]octan-8-yl)-N-(2,2,2-trifluoroethyl)nicotinamide] | < 200
CC(C)(Oc1ccc(Cl)cc1Cl)C(=O)N[C@H]1C[C@H]2CC[C@@H](C1)N2c1cccc(S(C)(=O)=O)c1 [Example 156, 2-[(2,4-dichlorophenyl)oxy]-2-methyl-N-{8-[3-(methylsulfonyl)phenyl]-8-azabicyclo[3.2.1]oct-3-endo-yl}propanamide] | < 2000
CC(C)(Oc1ccc(F)c(Cl)c1Cl)C(=O)N[C@H]1C[C@H]2CC[C@@H](C1)N2c1ccc(S(N)(=O)=O)cn1 [Example 215, N-{8-[5-(aminosulfonyl)pyridin-2-yl]-8-azabicyclo[3.2.1]oct-3-endo-yl}-2-[(2,3-dichloro-4-fluorophenyl)oxy]-2-methylpropanamide] | < 200
CC(C)NC(=O)c1ccc(N2[C@@H]3CC[C@H]2C[C@@H](NC(=O)C(C)(C)Oc2ccc(Cl)cc2)C3)nc1 [Example 30, 6-[3-endo-({2-[(4-chlorophenyl)oxy]-2-methylpropanoyl}amino)-8-azabicyclo[3.2.1]oct-8-yl]-N-(1-methylethyl)pyridine 3-carboxamide] | < 200
CC(C)(Oc1ccc(Cl)cc1C(F)F)C(=O)N[C@H]1C[C@H]2CC[C@@H](C1)N2c1ccc(C(=O)Nc2ccon2)cn1 [Example 404, 6-(3-endo-(2-(4-chloro-2-(difluoromethyl)phenoxy)-2-methylpropanamido)-8-azabicyclo[3.2.1]octan-8-yl)-N-(isoxazol-3-yl)nicotinamide] | < 200
CC(C)(Oc1cc(C(C)(C)O)c(Cl)cc1Cl)C(=O)N[C@H]1C[C@H]2CC[C@@H](C1)N2c1ccc(C(=O)NCC(F)(F)F)cn1 [Example 475, 6-[3-endo-({2-[2,4-dichloro-5-(2-hydroxypropan-2-yl)phenoxy]-2-methylpropanoyl}amino)-8-azabicyclo[3.2.1]oct-8-yl]-N-(2,2,2-trifluoroethyl)pyridine-3-carboxamide] | < 200
CC(C)(Oc1ncc(Cl)cc1Cl)C(=O)N[C@H]1C[C@H]2CC[C@@H](C1)N2c1ccc(C(=O)NCC(F)F)cn1 [Example 408, 6-(3-endo-(2-(3,5-dichloropyridin-2-yloxy)-2-methylpropanamido)-8-azabicyclo[3.2.1]octan-8-yl)-N-(2,2-difluoroethyl)nicotinamide] | < 200
CC(C)(Oc1ccc(C(F)(F)F)cc1Cl)C(=O)N[C@H]1C[C@H]2CC[C@@H](C1)N2c1ccc(C(N)=O)cn1 [Example 183, 6-{3-endo-[(2-{[2-chloro-4-(trifluoromethyl)phenyl]oxy}-2-methylpropanoyl)amino]-8-azabicyclo[3.2.1]oct-8-yl}pyridine-3-carboxamide] | < 200
COc1ccc(OC(C)(C)C(=O)NC2CC3CCC(C2)N3c2ccc(S(C)(=O)=O)cn2)c(Cl)c1 (stereo not drawn) [Example 253, 2-{[2-chloro-4-(methyloxy)phenyl]oxy}-2-methyl-N-{8-[5-(methylsulfonyl)pyridin-2-yl]-8-azabicyclo[3.2.1]oct-3-endo-yl}propanamide] | < 200
CC(C)(Oc1ccc(-c2ccccc2)cc1Cl)C(=O)N[C@H]1C[C@H]2CC[C@@H](C1)N2c1ccc(C(N)=O)cn1 [Example 266, 6-[3-endo-({2-[(3-chlorobiphenyl-4-yl)oxy]-2-methylpropanoyl}amino)-8-azabicyclo[3.2.1]oct-8-yl]pyridine-3-carboxamide] | < 200
CC(C)(Oc1ncc(Cl)cc1C(F)(F)F)C(=O)N[C@H]1C[C@H]2CC[C@@H](C1)N2c1ccc(C(=O)NCC(F)(F)F)cn1 [Example 273, 6-{3-endo-[(2-{[5-chloro-3-(trifluoromethyl)pyridin-2-yl]oxy}-2-methylpropanoyl)amino]-8-azabicyclo[3.2.1]oct-8-yl}-N-(2,2,2-trifluoroethyl)pyridine-3-carboxamide] | < 200
CC(C)(Oc1cc(F)c(F)cc1Cl)C(=O)N[C@H]1C[C@H]2CC[C@@H](C1)N2c1ccc(S(C)(=O)=O)cc1 [Example 225, 2-[(2-chloro-4,5-difluorophenyl)oxy]-2-methyl-N-{8-[4-(methylsulfonyl)phenyl]-8-azabicyclo[3.2.1]oct-3-endo-yl}propanamide] | < 200
C[C@H](NC(=O)c1ccc(N2C3CCC2CC(NC(=O)C(C)(C)Oc2ccc(F)cc2C(F)(F)F)C3)nc1)C(F)(F)F (stereo partly drawn) [Example 423, 6-[3-endo-({2-[4-fluoro-2-(trifluoromethyl)phenoxy]-2-methylpropanoyl}amino)-8-azabicyclo[3.2.1]oct-8-yl]-N-[(2S)-1,1,1-trifluoropropan-2-yl]pyridine-3-carboxamide] | < 200
CC(C)(Oc1cc(F)c(F)cc1Cl)C(=O)N[C@H]1C[C@H]2CC[C@@H](C1)N2c1ccc(C(=O)NCC(F)F)cn1 [Example 442, 6-(3-endo-{[2-(2-chloro-4,5-difluorophenoxy)-2-methylpropanoyl]amino}-8-azabicyclo[3.2.1]oct-8-yl)-N-(2,2-difluoroethyl)pyridine-3-carboxamide] | < 200
CC(C)(Oc1ncc(Cl)cc1C(F)(F)F)C(=O)N[C@H]1C[C@H]2CC[C@@H](C1)N2c1ccc(S(C)(=O)=O)cc1 [Example 325, 2-{[5-chloro-3-(trifluoromethyl)pyridin-2-yl]oxy}-2-methyl-N-{8-[4-(methylsulfonyl)phenyl]-8-azabicyclo[3.2.1]oct-3-endo-yl}propanamide] | < 200
Cc1nc(N2[C@@H]3CC[C@H]2C[C@@H](NC(=O)C(C)(C)Oc2ccc(Cl)cc2)C3)ccc1C(=O)NC1CC1 [Example 51, 6-[3-endo-({2-[(4-chlorophenyl)oxy]-2-methylpropanoyl}amino)-8-azabicyclo[3.2.1]oct-8-yl]-N-cyclopropyl-2-methylpyridine-3-carboxamide] | < 2000

— patent publication US8163771B2, “11 β-HSD1 modulators” (Exelixis, Inc., priority 2008, dated 2012)
